The values that follow are results of earlier work, collected in US20200309767A1, “HIGH-THROUGHPUT IMAGING-BASED METHODS FOR PREDICTING CELL-TYPE-SPECIFIC TOXICITY OF XENOBIOTICS WITH DIVERSE CHEMICAL STRUCTURES” (priority 2015, published 2020).

Counter-ions that a name gives are not always drawn. Like-named read-outs stand apart in the source and are kept apart here.

Data set [1] deals with human proximal tubular cells (PTCs). The note with it: cited from earlier work.
For another data set, the system named is human kidney. The following applies: cited from earlier work.
Another data set concerns liver. The following applies: in vivo; cited from earlier work.
The next data set deals with lung. The following applies: cited from earlier work.
Setting [2] is: known in vivo group, Toxic / Non-toxic.
The mark [3] stands for this setting: known human kidney toxicity flag 1/0.

Consider `C[C@@H]1C[C@H]2[C@@H]3CCC4=CC(=O)C=C[C@]4(C)[C@@]3(F)[C@@H](O)C[C@]2(C)[C@@]1(O)C(=O)CO` [Dexamethasone], for which, in data set [1] (human, in vivo), the “PTC Toxicity” value is “Non-toxic” and the PTC-toxic is given as 0. Moreover, the Nephrotoxic in the data set with human kidney (in vivo) is given as 0. Besides, the Hepatotoxic in the data set on liver is 0.
Regarding `O=[As]O[As]=O` (stereo not drawn) [Arsenic(III) oxide], the “PTC Toxicity” value in data set [1] (setting [2]) was “Toxic”. In data set [1] (known toxicity flag 1/0), the PTC-toxic was 1. Also, the Nephrotoxic in the data set on human kidney (setting [3]) is reported as 1. The Hepatotoxic in the data set on liver is given as 1.
`C=CC[C@@H]1/C=C(\C)C[C@H](C)C[C@H](OC)[C@H]2O[C@@](O)(C(=O)C(=O)N3CCCC[C@H]3C(=O)O[C@H](/C(C)=C/[C@@H]3CC[C@@H](O)[C@H](OC)C3)[C@H](C)[C@@H](O)CC1=O)[C@H](C)C[C@@H]2OC` [Tacrolimus]: in data set [1] (human, in vivo), the “PTC Toxicity” value is reported as “Toxic” and the PTC-toxic was 1. Also, in the data set with human kidney (in vivo), the Nephrotoxic is recorded as 1. Further, the Hepatotoxic in the data set with liver was 0.
As to `CN(CCCC(=O)c1cccnc1)N=O` [NNK], the Pulmonotoxic in the data set with lung (known toxicity flag 1/0) is listed as 1.
Regarding `CN1COCN(Cc2cnc(Cl)s2)/C1=N\[N+](=O)[O-]` [Thiamethoxam], the Pulmonotoxic with lung (human, in vivo) is 0.
On to `Cl[C@H]1[C@H](Cl)[C@@H](Cl)[C@@H](Cl)[C@H](Cl)[C@H]1Cl` [Lindane], for which, in data set [1] (human, in vivo), the “PTC Toxicity” value was “Non-toxic” and the PTC-toxic is listed as 0. In the data set on human kidney (in vivo), the Nephrotoxic is on record as 1. Moreover, the Hepatotoxic in the data set with liver is given as 0.
On to `NCC(=O)O` [Glycine], for which, in data set [1] (human, in vivo), the “PTC Toxicity” value is “Non-toxic” and the PTC-toxic is 0. In the data set with human kidney (in vivo), the Nephrotoxic is 0. In addition, in the data set with liver, the Hepatotoxic is on record as 0.
Regarding `CC(=O)OCC1=C(C(=O)O)N2C(=O)[C@@H](NC(=O)CCC[C@@H](N)C(=O)O)[C@H]2SC1` [Cephalosporin C], in data set [1] (human, in vivo), the “PTC Toxicity” value was “Toxic” and the PTC-toxic is recorded as 1. For the same molecule, the Nephrotoxic with human kidney (in vivo) is on record as 1. In addition, the Hepatotoxic in the data set with liver is reported as 0.
Regarding `[Cl][Cu][Cl]` [Copper(II) chloride], the “PTC Toxicity” value in data set [1] (setting [2]) was “Toxic”. In data set [1] (known toxicity flag 1/0), the PTC-toxic is 1. The Nephrotoxic in the data set on human kidney (setting [3]) is listed as 1. Also, the Hepatotoxic in the data set with liver is recorded as 1.
Consider Hydroxypropyl-β-cyclodextrin, for which, in the data set with lung (human, in vivo), the Pulmonotoxic is listed as 0.
For `COc1ccc2[nH]cc(CCNC(C)=O)c2c1` [Melatonin], the “PTC Toxicity” value in data set [1] (human, in vivo) was “Non-toxic”.
Regarding `N[C@@H](Cc1ccc(O)c(O)c1)C(=O)O` [Levodopa], the “PTC Toxicity” value in data set [1] (human, in vivo) is “Non-toxic”.
As to `COc1cccc2c1cc([N+](=O)[O-])c1c(C(=O)O)cc3c(c12)OCO3` [Aristolochic acid], in data set [1] (setting [2]), the “PTC Toxicity” value is reported as “Toxic”. For the same molecule, the PTC-toxic in data set [1] (known toxicity flag 1/0) was 1. Moreover, in the data set with human kidney (setting [3]), the Nephrotoxic is listed as 1. Moreover, the Hepatotoxic with liver was 1.
As for `O=C(Cc1cccs1)N[C@@H]1C(=O)N2C(C(=O)[O-])=C(C[n+]3ccccc3)CS[C@H]12` [Cephaloridine], in data set [1] (human, in vivo), the “PTC Toxicity” value is on record as “Toxic” and the PTC-toxic is 1. For the same molecule, in the data set on human kidney (in vivo), the Nephrotoxic is on record as 1. In addition, the Hepatotoxic in the data set with liver is listed as 0.
For `O=C1CC[C@@]2(O)[C@H]3Cc4ccc(O)c5c4[C@@]2(CCN3CC2CC2)[C@H]1O5` [Naltrexone hydrochloride], the Pulmonotoxic in the data set on lung (human, in vivo) is 0.
As for `C=CC(=C)CCC=C(C)C` [β-Myrcene], the Pulmonotoxic in the data set with lung (human, in vivo) is reported as 0.
Bleomycin sulfate: the Pulmonotoxic in the data set on lung (human, in vivo) was 1.
As for `CN(Cc1cnc2nc(N)nc(N)c2n1)c1ccc(C(=O)N[C@@H](CCC(=O)O)C(=O)O)cc1` [Methotrexate], the Pulmonotoxic in the data set on lung (human, in vivo) is on record as 1.
`C[C@@H]1[C@H](O)[C@@H](C)/C=C/C=C/CC/C=C/C=C/C=C/C=C/C(O[C@H]2O[C@H](C)[C@@H](O)[C@H](N)[C@@H]2O)CC2O[C@](O)(CC(O)C(O)CCC(O)CC(O)CC(O)CC(=O)O[C@H]1C)CC(O)C2C(=O)O` (stereo partly drawn) [Nystatin]: the Pulmonotoxic in the data set with lung (human, in vivo) is recorded as 0.
`C[C@]12CCC(=O)C=C1CC[C@@H]1[C@@H]2[C@@H](O)C[C@@]2(C)[C@H]1CC[C@]2(O)C(=O)CO` [Hydrocortisone]: in data set [1] (human, in vivo), the “PTC Toxicity” value is given as “Non-toxic” and the PTC-toxic is on record as 0. For the same molecule, the Hepatotoxic in the data set with liver is 0.
Consider `O=P1(N(CCCl)CCCl)NCCCO1` (stereo not drawn) [Cyclophosphamide], for which the Pulmonotoxic with lung (known toxicity flag 1/0) is recorded as 1.
As to `Nc1ccc(N)cc1` [p-Phenylenediamine], in the data set with lung (human, in vivo), the Pulmonotoxic is 1.
Turning to `CC(O)CCC(=O)c1ccoc1` (stereo not drawn) [4-Ipomeanol], the Pulmonotoxic in the data set with lung (known toxicity flag 1/0) is recorded as 0.
On to `N[C@@H](Cc1cc(I)c(Oc2ccc(O)c(I)c2)c(I)c1)C(=O)O` [Triiodothyronine], for which the “PTC Toxicity” value in data set [1] (human, in vivo) is “Non-toxic”.
As to `CC(=O)OCC1=C(C(=O)O)N2C(=O)[C@@H](NC(=O)Cc3cccs3)[C@H]2SC1` [Cephalothin], in data set [1] (human, in vivo), the “PTC Toxicity” value is “Toxic” and the PTC-toxic is 1. The Nephrotoxic in the data set on human kidney (in vivo) is listed as 1. Also, the Hepatotoxic in the data set with liver is 0.
As for `C=C(Cl)Cl` [Vinylidene chloride], the Pulmonotoxic in the data set on lung (human, in vivo) is on record as 0.
On to `CC(C)Cc1ccc(C(C)C(=O)O)cc1` (stereo not drawn) [Ibuprofen], for which, in data set [1] (human, in vivo), the “PTC Toxicity” value was “Non-toxic” and the PTC-toxic was 0. Also, the Hepatotoxic in the data set with liver is 1.
As for `[K+].[K+].[O]=[Cr](=[O])([O-])[O][Cr](=[O])(=[O])[O-]` [Potassium dichromate], in data set [1] (human, in vivo), the “PTC Toxicity” value is “Toxic” and the PTC-toxic is listed as 1. Also, the Nephrotoxic with human kidney (in vivo) is 1. Also, in the data set with liver, the Hepatotoxic is reported as 1.
With `Cc1ccnc2c1NC(=O)c1cccnc1N2C1CC1` [Nevirapine], the Pulmonotoxic in the data set on lung (human, in vivo) is 0.
As to `NC(=O)N1c2ccccc2C=Cc2ccccc21` [Carbamazepine], in the data set on lung (human, in vivo), the Pulmonotoxic is 1.
In the case of `CCOc1ccc(NC(C)=O)cc1` [Phenacetin], in data set [1] (human, in vivo), the “PTC Toxicity” value is “Non-toxic”.
Consider `[Cl-].[Na+]` [Sodium chloride], for which the Pulmonotoxic in the data set with lung (human, in vivo) is given as 0.
For the molecule `CC(=O)N1CCN(c2ccc(OCC3COC(Cn4ccnc4)(c4ccc(Cl)cc4Cl)O3)cc2)CC1` (stereo not drawn) [Ketoconazole], the Pulmonotoxic with lung (human, in vivo) is listed as 0.
On to `O=C1CN(/N=C/c2ccc([N+](=O)[O-])o2)C(=O)N1` [Nitrofurantoin], for which the Pulmonotoxic with lung (human, in vivo) is listed as 1.
Turning to `C[C@H]1O[C@H](O[C@H]2[C@H](O)[C@@H](O)[C@@H](O[C@H]3[C@H](O)[C@@H](O)C(O)O[C@@H]3CO)O[C@@H]2CO)[C@H](O)[C@@H](O)[C@@H]1N[C@H]1C=C(CO)[C@@H](O)[C@H](O)[C@H]1O` (stereo partly drawn) [Acarbose], in data set [1] (human, in vivo), the “PTC Toxicity” value was “Non-toxic”. Moreover, in data set [1] (known toxicity flag 1/0), the PTC-toxic was 0.
As for `CN(C)C(=N)N=C(N)N` [Metformin hydrochloride], in the data set with human kidney (in vivo), the Nephrotoxic is listed as 1. Further, in the data set with liver, the Hepatotoxic is recorded as 0.
Regarding `CC(=O)Nc1ccc(O)cc1` [Acetaminophen], in data set [1] (human, in vivo), the “PTC Toxicity” value is “Non-toxic” and the PTC-toxic is reported as 0. Also, the Nephrotoxic in the data set on human kidney (in vivo) was 1. Besides, in the data set on liver, the Hepatotoxic was 1.
Take `C[C@H]1C(=O)O[C@@H]2CCN3CC=C(COC(=O)[C@](C)(O)[C@]1(C)O)[C@H]23` [Monocrotaline]: the Pulmonotoxic with lung (human, in vivo) is 0.
For `CO[C@H]1/C=C/O[C@@]2(C)Oc3c(C)c(O)c4c(O)c(c(/C=N/N5CCN(C)CC5)c(O)c4c3C2=O)NC(=O)/C(C)=C\C=C\[C@H](C)[C@H](O)[C@@H](C)[C@@H](O)[C@@H](C)[C@H](OC(C)=O)[C@@H]1C` [Rifampicin], in data set [1] (human, in vivo), the “PTC Toxicity” value was “Toxic” and the PTC-toxic is listed as 1. Further, in the data set with human kidney (in vivo), the Nephrotoxic is reported as 1. Moreover, the Hepatotoxic in the data set with liver is on record as 1.
For `CC1=C2C(=CO[C@H](C)[C@H]2C)C(O)=C(C(=O)O)C1=O` [Citrinin], in data set [1] (human, in vivo), the “PTC Toxicity” value was “Toxic” and the PTC-toxic is on record as 1. The Nephrotoxic in the data set on human kidney (in vivo) is 1. The Hepatotoxic in the data set on liver was 0.
As for `CCCCc1oc2ccccc2c1C(=O)c1cc(I)c(OCCN(CC)CC)c(I)c1.Cl` [Amidoarone hydrochloride], the Pulmonotoxic in the data set with lung (known toxicity flag 1/0) is reported as 1.
Regarding `CC(C)[C@H](N)C(=O)OCCOCn1cnc2c(=O)[nH]c(N)nc21` [Valacyclovir], in data set [1] (human, in vivo), the “PTC Toxicity” value was “Non-toxic” and the PTC-toxic is on record as 0. Also, in the data set with human kidney (in vivo), the Nephrotoxic is recorded as 1. Further, in the data set with liver, the Hepatotoxic was 1.
With `CN[C@H](CC(C)C)C(=O)N[C@H]1C(=O)N[C@@H](CC(N)=O)C(=O)N[C@H]2C(=O)N[C@H]3C(=O)N[C@H](C(=O)N[C@H](C(=O)O)c4cc(O)cc(O)c4-c4cc3ccc4O)[C@H](O)c3ccc(c(Cl)c3)Oc3cc2cc(c3O[C@@H]2O[C@H](CO)[C@@H](O)[C@H](O)[C@H]2O[C@H]2C[C@](C)(N)[C@H](O)[C@H](C)O2)Oc2ccc(cc2Cl)[C@H]1O` [Vancomycin], in data set [1] (human, in vivo), the “PTC Toxicity” value is given as “Non-toxic” and the PTC-toxic is recorded as 0. In addition, the Nephrotoxic with human kidney (in vivo) was 1. For the same molecule, in the data set on liver, the Hepatotoxic is 1.
For `[Ge+4].[O-2].[O-2]` [Germanium(IV) oxide], the “PTC Toxicity” value in data set [1] (setting [2]) is reported as “Toxic”. Moreover, the PTC-toxic in data set [1] (known toxicity flag 1/0) is recorded as 1. Moreover, the Nephrotoxic in the data set with human kidney (setting [3]) was 1. For the same molecule, the Hepatotoxic in the data set with liver is 0.
As for `[Bi+3].[Bi+3].[O-2].[O-2].[O-2]` [Bismuth(III) oxide], the “PTC Toxicity” value in data set [1] (setting [2]) is reported as “Toxic”. In data set [1] (known toxicity flag 1/0), the PTC-toxic was 1. In the data set with human kidney (setting [3]), the Nephrotoxic is recorded as 1. Also, the Hepatotoxic in the data set with liver was 1.
For the molecule `COc1ccc(C[C@H](N)C(=O)N[C@H]2[C@@H](O)[C@H](n3cnc4c(N(C)C)ncnc43)O[C@@H]2CO)cc1` [Puromycin], in data set [1] (human, in vivo), the “PTC Toxicity” value is listed as “Toxic” and the PTC-toxic is 1. In the data set on human kidney (in vivo), the Nephrotoxic is on record as 1. In addition, the Hepatotoxic with liver is reported as 1.
As for `CN(C)[C@@H]1C(O)=C(C(N)=O)C(=O)[C@@]2(O)C(O)=C3C(=O)c4c(O)cccc4[C@@](C)(O)[C@H]3C[C@@H]12` [Tetracycline], in data set [1] (human, in vivo), the “PTC Toxicity” value is “Toxic” and the PTC-toxic is recorded as 1. Besides, the Nephrotoxic in the data set on human kidney (in vivo) is 1. For the same molecule, the Hepatotoxic in the data set with liver was 1.
As for `[Cl][Au]` [Gold(I) chloride], in data set [1] (human, in vivo), the “PTC Toxicity” value is “Toxic” and the PTC-toxic is given as 1. The Nephrotoxic in the data set on human kidney (in vivo) was 1. Further, the Hepatotoxic with liver is reported as 1.
